These results are taken from ChEMBL document CHEMBL3507680, “University of Dundee, Gates Library screen for HepG2 cell viability”.

The series is described as follows: Human HepG2 cell viability assay in 384 well format. The class given is toxicity, cell-based. More on the design: dose 125 nL, time 70.5 hour; concentration not given beside the values. To be noted: HepG2 cells, read-out: Inhibition.
Turning to `O=C(c1nc(Cc2c[nH]c3ccccc23)no1)N1CCCCC1`, the cytotoxicity at 70.5 h was -7.41%.

For `CCCc1nc2c(c(C)c(C)n2CCN(C)C)c(N)c1CC`, the cytotoxicity at 70.5 h is 3.64%.

Regarding `Cc1cc(C)n2c(CCCNS(=O)(=O)c3cccs3)nnc2n1`, the cytotoxicity at 70.5 h is -10.2%.

Regarding `CCc1c(-c2ccccc2)nc2c(c(C)c(C)n2CCN(C)C)c1N`, the cytotoxicity at 70.5 h turned out to be 15.2%.

With `COC(=O)CNC(=O)Cn1ccc2ccc(F)cc21`, the cytotoxicity at 70.5 h was -3.86%.

In the case of `COc1ccc(SC(C)C(=O)N2CCC(C(N)=O)CC2)cc1` (centres undefined), the cytotoxicity at 70.5 h is -14.1%.

For `CN(CCCO)C(=O)c1ccc2c(c1)nc(N1CC[C@H](O)C1)n2C`, the cytotoxicity at 70.5 h was -7.06%.

With `Cc1nnc(-c2cccc(N3CCC(NC4CCSC4)CC3)c2)s1` (centres undefined), the cytotoxicity at 70.5 h came to 4.71%.

For `CN1C[C@@H](n2cnc(-c3ccccc3)c2-c2c[nH]cn2)C[C@H]1C(=O)O`, the cytotoxicity at 70.5 h is -7.26%.

For the compound `c1coc(CN2CCn3c(nc4ccccc43)C2)c1`, the cytotoxicity at 70.5 h was 29.8%.

For the compound `Cc1cc(Cc2ccc(S(=O)(=O)N3CCOCC3)cc2)c(=O)[nH]n1`, the cytotoxicity at 70.5 h stood at 12.1%.

On to `CS(=O)(=O)N(Cc1ccon1)c1ccc(F)cc1`, for which the cytotoxicity at 70.5 h was -2.76%.

Turning to `CS(=O)(=O)N(Cc1ccon1)c1ccc2c(c1)OCO2`, the cytotoxicity at 70.5 h is -6.03%.

Consider `Cc1cc(C(F)(F)F)cc(=O)n1CCn1cc(Cl)cn1`, for which the cytotoxicity at 70.5 h was -11.3%.

Consider `Cc1cccc(N2CCC3(CCCN3Cc3c(C)nn(C)c3C)CC2)n1`, for which the cytotoxicity at 70.5 h is -3.1%.

For the compound `O=C1N(c2ccc(Br)cc2)Cc2n[nH]c(=O)n21`, the cytotoxicity at 70.5 h was found to be 23.8%.

In the case of `Cc1ccc(-c2ccc(Cl)nn2)cc1S(=O)(=O)N1CCOCC1`, the cytotoxicity at 70.5 h is -5.38%.

Regarding `CC(C)N1CC(n2ccnc2-c2nccn2C)CC1=O` (centres undefined), the cytotoxicity at 70.5 h was -7.49%.

On to `COc1ccc(-n2ncc(C(C)NC3CCSCC3)c2C)cc1` (centres undefined), for which the cytotoxicity at 70.5 h is -4.41%.

`CC(C)(C)OC(=O)NC1CCCN(Cc2cccs2)C1` (centres undefined): the cytotoxicity at 70.5 h came to 6.34%.

In the case of `CCn1ccnc1CN1C[C@@H](NC(=O)C2CC2)[C@H](c2ccc(C)cc2)C1`, the cytotoxicity at 70.5 h worked out at 23.8%.

On to `Cc1nc2ccccc2n1Cc1cc(C(=O)N2C[C@@H](C)O[C@@H](C)C2)no1`, for which the cytotoxicity at 70.5 h is -8.42%.

For `CCCC1(CO)CCCN(C(=O)CCCn2nc(C)cc2C)C1` (centres undefined), the cytotoxicity at 70.5 h is -0.556%.

Turning to `CN(c1ccc(C(=O)NCCCN2CCCCC2)c(Cl)c1)S(C)(=O)=O`, the cytotoxicity at 70.5 h is -2.79%.

`Fc1ccc(-c2noc3c2CN(CC2CC2)CC3)cc1F`: the cytotoxicity at 70.5 h was -29.6%.

As to `CN(C)CCCNC(=O)c1ccc(N(C)S(C)(=O)=O)cc1Cl`, the cytotoxicity at 70.5 h is -5.53%.

With `CCC(NC(=O)C1CCN(S(C)(=O)=O)CC1)c1ccc(C)c(C)c1` (centres undefined), the cytotoxicity at 70.5 h was -4.17%.

As for `CCCNCc1ccc(-c2cc(N)nc3[nH]ccc23)cc1`, the cytotoxicity at 70.5 h was -0.725%.

On to `CC(C)(C)OC(=O)NC1CCCN(Cc2cccc(O)c2)C1` (centres undefined), for which the cytotoxicity at 70.5 h was -4.69%.

As to `CCOc1ccccc1C(C(=O)O)N(C)Cc1nc(C)c[nH]1` (centres undefined), the cytotoxicity at 70.5 h is -6.68%.

`CCC(C)N(Cc1cc(C)n[nH]1)Cc1ccccc1Cl` (centres undefined): the cytotoxicity at 70.5 h was -10.8%.

For `O=C1NC[C@@]2(C(=O)O)CN(Cc3cccc(Oc4ccccc4)c3)C[C@@H]12`, the cytotoxicity at 70.5 h is -4.3%.

For the compound `O=C(NCc1cc2n(n1)CCCNC2)C1(c2ccc(Cl)cc2)CCC1`, the cytotoxicity at 70.5 h was found to be 1.64%.

Consider `Cc1nnc(CCNC(=O)C2CC(=O)N(C(C)(C)C)C2)s1` (centres undefined), for which the cytotoxicity at 70.5 h worked out at 26.2%.

On to `O=C1COc2cc(C(=O)NS(=O)(=O)c3ccc(F)cc3)ccc2N1`, for which the cytotoxicity at 70.5 h was -17.6%.

`O=C1COc2ccc(C(=O)NS(=O)(=O)c3cc(F)ccc3F)cc2N1`: the cytotoxicity at 70.5 h is -8.54%.

For `COc1ccc(OCCN2CCN(Cc3nccn3C)CC2)cc1`, the cytotoxicity at 70.5 h is 12.8%.

In the case of `CCN(CC1CCOC1)C(=O)c1cc(F)ccc1N1CCN(C)CC1` (centres undefined), the cytotoxicity at 70.5 h turned out to be 46%.

Take `CCOCC1CCCN(C(=O)NCc2ccc(-c3ccn[nH]3)cc2)C1` (centres undefined): the cytotoxicity at 70.5 h worked out at 12.5%.

Consider `CSC(C)C(=O)N1CCCN(c2ncccc2C#N)CC1` (centres undefined), for which the cytotoxicity at 70.5 h turned out to be 12.4%.

Consider `COc1ccc(C(=O)N2CCCC2c2cnn(C)c2)cn1` (centres undefined), for which the cytotoxicity at 70.5 h amounted to 9.21%.

As for `CCN(CC1CCOC1)C(=O)c1ccc(N2CCOCC2)c(F)c1` (centres undefined), the cytotoxicity at 70.5 h was -6.24%.

`Cc1occc1C(=O)N1CCCN(Cc2nccn2C)CC1`: the cytotoxicity at 70.5 h is -8.79%.

As for `N#Cc1ccccc1N1CCCN(C(=O)NCc2cc[nH]n2)CC1`, the cytotoxicity at 70.5 h is -6.85%.

As for `CCN(CC1CCOC1)C(=O)c1ccccc1S(C)(=O)=O` (centres undefined), the cytotoxicity at 70.5 h was -4.17%.

Take `CCOc1ccccc1N1CCN(C(=O)NCc2cc[nH]n2)CC1`: the cytotoxicity at 70.5 h amounted to 18.3%.

Consider `CC(C)(C)c1ncc(C(=O)NCCNC(=O)c2ccco2)s1`, for which the cytotoxicity at 70.5 h is -6.05%.

On to `CC(C)(C)c1ncc(C(=O)NCCNC(=O)c2ccc(O)cc2)s1`, for which the cytotoxicity at 70.5 h is -7.09%.

Regarding `CC(C)(C)c1ncc(C(=O)NCCNS(C)(=O)=O)s1`, the cytotoxicity at 70.5 h is -7.98%.

`NC(=O)CC1CCN(C(=O)NCc2ccc(-c3ccn[nH]3)cc2)CC1`: the cytotoxicity at 70.5 h was -11.3%.

In the case of `CN(CCCOc1ccccc1)Cc1nc2c(cnn2C)c(=O)[nH]1`, the cytotoxicity at 70.5 h was -1.06%.

Regarding `COC(=O)c1ccc(N2CCN(CCS(C)(=O)=O)C(C)C2)cc1` (centres undefined), the cytotoxicity at 70.5 h was -3.48%.

In the case of `CCN1CCN(C(=O)NCc2cc[nH]n2)CC1`, the cytotoxicity at 70.5 h was -8.83%.

`COc1c(CNC2CCN(c3ncccn3)CC2)c(C)nn1C`: the cytotoxicity at 70.5 h was -8.59%.

Take `Cn1cc(C2CCCN2C(=O)c2ccc(OCC3CC3)nc2)cn1` (centres undefined): the cytotoxicity at 70.5 h was -4.15%.

Turning to `Cn1ccnc1CN1CCCN(C(=O)c2ccc3ccccc3c2)CC1`, the cytotoxicity at 70.5 h stood at 1.95%.

For the compound `CN(C)c1cc(C(=O)N2CCCN(Cc3nccn3C)CC2)ccn1`, the cytotoxicity at 70.5 h is 14.3%.

For `Cc1cccc(NS(=O)(=O)c2cc3c(c(C(=O)O)c2)OCCO3)c1`, the cytotoxicity at 70.5 h is -7.67%.

`CC(C)Oc1ccc(C(=O)N2CCCC2c2cnn(C)c2)cn1` (centres undefined): the cytotoxicity at 70.5 h is -3%.

As to `CC(C)c1ncc2c(n1)CN(CC(=O)Nc1ccncc1)CC2`, the cytotoxicity at 70.5 h was -7.98%.

As for `Cn1ccnc1CN1CCCN(C(=O)c2ccc3cc[nH]c3c2)CC1`, the cytotoxicity at 70.5 h was -7.08%.

Regarding `Cc1ncc2c(n1)CN(CC(=O)Nc1nccs1)CC2`, the cytotoxicity at 70.5 h was -10.4%.

As to `CN(CC(=O)Nc1ccncc1)C1CCCN(c2cccnn2)C1` (centres undefined), the cytotoxicity at 70.5 h is -3.61%.

With `O=C(NCCOc1ccc2c(c1)OCO2)C1CC(=O)N(C2CC2)C1` (centres undefined), the cytotoxicity at 70.5 h was 3.82%.

For the compound `CSc1nccn1-c1cccc(C(=O)NCCN2CCS(=O)(=O)CC2)c1`, the cytotoxicity at 70.5 h was 0.708%.

`CSc1nccn1-c1cccc(C(=O)NCC(F)(F)F)c1`: the cytotoxicity at 70.5 h was -0.984%.

Regarding `CCC1CCCCN1Cc1nc2c(cnn2C)c(=O)[nH]1` (centres undefined), the cytotoxicity at 70.5 h is -0.935%.

Regarding `CCCNC(=O)C(C)N1CCC(C(=O)Nc2cnn(CC)c2)CC1` (centres undefined), the cytotoxicity at 70.5 h is -4.58%.

As for `CCn1cc(NC(=O)C2CCN(CC(=O)NCC(C)C)CC2)cn1`, the cytotoxicity at 70.5 h was -5.15%.

With `Cc1cc(C)n(CC2CN(c3ccc(C#N)cn3)CCO2)n1` (centres undefined), the cytotoxicity at 70.5 h was -3.22%.

Consider `NC(=O)CC1CCCCN1C(=O)c1cccc(C(F)(F)F)c1` (centres undefined), for which the cytotoxicity at 70.5 h is -0.919%.

For `Cc1ccc(C(=O)N2CCCCC2CNC(N)=O)cc1F` (centres undefined), the cytotoxicity at 70.5 h worked out at 0.819%.

For `Cc1cccc(-c2nc(CNC3CCc4ncnn4C3)no2)c1` (centres undefined), the cytotoxicity at 70.5 h was -4.91%.

As for `c1ccc(-c2nc(CNC3CCc4ncnn4C3)no2)cc1` (centres undefined), the cytotoxicity at 70.5 h was -3.91%.

In the case of `Cc1nccn1C1CCCN(C(=O)c2ccc(N(C)C)nn2)C1` (centres undefined), the cytotoxicity at 70.5 h was -4.18%.

On to `Cc1nccn1C1CCCN(C(=O)c2ccc(-n3cccn3)nc2)C1` (centres undefined), for which the cytotoxicity at 70.5 h was 0.896%.

For `COc1ccccc1OCCC(=O)N1CCCC1Cn1cccn1` (centres undefined), the cytotoxicity at 70.5 h was determined as 2.97%.

On to `O=C(CCOc1ccc(F)cc1)N1CCCC1Cn1cccn1` (centres undefined), for which the cytotoxicity at 70.5 h is -2.78%.

Take `Cn1cc(-c2nc(C(=O)N3CCCC3Cn3cccn3)cs2)cn1` (centres undefined): the cytotoxicity at 70.5 h is -4.01%.

As for `CCCc1n[nH]c(C2CN(C(=O)c3n[nH]c4ccccc34)CCO2)n1` (centres undefined), the cytotoxicity at 70.5 h is -6.7%.

For the compound `CCCc1n[nH]c(C2CN(C(=O)c3ccc4c(c3)COC4)CCO2)n1` (centres undefined), the cytotoxicity at 70.5 h was -4.22%.

Regarding `CCCc1n[nH]c(C2CN(C(=O)c3ccc(C)[nH]c3=O)CCO2)n1` (centres undefined), the cytotoxicity at 70.5 h turned out to be 15.4%.

`CSc1nccn1-c1ccc(C(=O)NCC2CC2)cc1`: the cytotoxicity at 70.5 h was -4.68%.

As to `O=C(c1csc(C2CC2)n1)N1CCCC1Cn1cccn1` (centres undefined), the cytotoxicity at 70.5 h stood at 0.252%.

As to `COCCN1CCC(CNC(=O)C2(c3cccc(C)c3)CC2)C1` (centres undefined), the cytotoxicity at 70.5 h was determined as 17.2%.

`COc1c(CNCCC(=O)NC2CCCC2)c(C(C)C)nn1C`: the cytotoxicity at 70.5 h was found to be 0.44%.

With `CCOc1ccccc1C1=CCN(C(=O)C2CCN(C)C(=O)C2)CC1` (centres undefined), the cytotoxicity at 70.5 h was determined as 16.3%.

As to `CCc1cnc(CN(C(C)=O)C2CCN(CCc3ccccn3)C2)o1` (centres undefined), the cytotoxicity at 70.5 h was 1.82%.

Consider `Cc1cccc(OCCNC(=O)CN2CCCC2Cn2cncn2)c1` (centres undefined), for which the cytotoxicity at 70.5 h was -4.68%.

Take `O=C(CN1CCCCC1Cn1cncn1)NCCOc1ccccc1` (centres undefined): the cytotoxicity at 70.5 h was -1.79%.

Regarding `CCOc1cc(C(=O)N2CCCC(c3noc(CC)n3)C2)ccn1` (centres undefined), the cytotoxicity at 70.5 h was -2.83%.

Regarding `COc1ccc(C(=O)N(Cc2cnn(C)c2)C(C)C)cc1OC(F)F`, the cytotoxicity at 70.5 h is -3.59%.

Regarding `CCOc1cc(C(=O)N2CCCC(c3nc(C)c(C)s3)C2)ccn1` (centres undefined), the cytotoxicity at 70.5 h was determined as 3.48%.

Turning to `Cc1nc(C2CCCN2Cc2ccc(S(=O)(=O)N(C)C)o2)no1` (centres undefined), the cytotoxicity at 70.5 h was -5.97%.

As to `CC(C)CCc1nc(CN2CCOC(Cn3cncn3)C2)cs1` (centres undefined), the cytotoxicity at 70.5 h is -2.95%.

In the case of `O=C(CS(=O)(=O)Cc1cc(Cl)c2c(c1)OCO2)N1CCCCCC1`, the cytotoxicity at 70.5 h is -2.51%.

As to `COc1ccc(C2=CCN(C(=O)C3CCS(=O)(=O)C3)CC2)cc1` (centres undefined), the cytotoxicity at 70.5 h amounted to 19.4%.

As to `CNS(=O)(=O)c1ccc(C(=O)N2CCCC2c2ccncc2)o1` (centres undefined), the cytotoxicity at 70.5 h was -2.81%.

For `Cc1cc(C2CCCN2Cc2ccc(S(=O)(=O)N(C)C)o2)on1` (centres undefined), the cytotoxicity at 70.5 h was -1.52%.
